In the NIST ThermoML archive (doi:10.1021/je0497247):
± gives the expanded uncertainty stated by the source.

Details: 100 kPa, Liquid; for viscosity: Capillary tube (Ostwald / Ubbelohde) method; for mass density: Pycnometric method

**Q.** Which viscosity (400.3 K) does the source give for `O=C(O)c1ccccc1` [benzoic acid] here?
**A.** 1.372 ± 0.037 mPa·s

**Q.** What about the mass density (401.3 K) of the same molecule?
**A.** 1089.5 ± 3 kg/m3

**Q.** What about the thermal conductivity (406.8 K) of the same molecule?
**A.** 0.139 ± 0.006 W/m/K

**Q.** And the viscosity (409.3 K)?
**A.** 1.238 ± 0.032 mPa·s

**Q.** And the mass density (410.3 K)?
**A.** 1080.2 ± 3.2 kg/m3

**Q.** What about the viscosity (418.3 K) of the same molecule?
**A.** 1.117 ± 0.03 mPa·s

**Q.** And the mass density (419.3 K)?
**A.** 1069.8 ± 3 kg/m3

**Q.** What about the thermal conductivity (424.4 K) of the same molecule?
**A.** 0.137 ± 0.006 W/m/K

**Q.** What about the viscosity (427.2 K) of the same molecule?
**A.** 1.026 ± 0.028 mPa·s

**Q.** What about the mass density (428.2 K) of the same molecule?
**A.** 1060.2 ± 3 kg/m3

**Q.** What about the viscosity (432.1 K) of the same molecule?
**A.** 0.953 ± 0.026 mPa·s

**Q.** What about the mass density (432.1 K) of the same molecule?
**A.** 1055 ± 3 kg/m3

**Q.** What about the thermal conductivity (444.9 K) of the same molecule?
**A.** 0.134 ± 0.006 W/m/K

**Q.** And the viscosity (447.1 K)?
**A.** 0.802 ± 0.022 mPa·s

**Q.** And the mass density (447.1 K)?
**A.** 1036 ± 3 kg/m3

**Q.** What about the thermal conductivity (465.1 K) of the same molecule?
**A.** 0.132 ± 0.006 W/m/K
